ChEMBL document CHEMBL1135943, “Modifications and structure-activity relationships at the 2-position of 4-sulfonamidopyrimidine derivatives as potent endothelin antagonists” (Bioorg Med Chem Lett, 2002)
Converted amounts (≈) assume the structure as drawn.

What was measured:
[1] = target: T1, Endothelin-1 receptor (Sus scrofa, UniProt Q29010); test: In vitro inhibition of [125 I]ET-1 binding to Endothelin A receptor in porcine aortic membrane.; format: cell membranes
T1 sequence (Q29010 whole entry): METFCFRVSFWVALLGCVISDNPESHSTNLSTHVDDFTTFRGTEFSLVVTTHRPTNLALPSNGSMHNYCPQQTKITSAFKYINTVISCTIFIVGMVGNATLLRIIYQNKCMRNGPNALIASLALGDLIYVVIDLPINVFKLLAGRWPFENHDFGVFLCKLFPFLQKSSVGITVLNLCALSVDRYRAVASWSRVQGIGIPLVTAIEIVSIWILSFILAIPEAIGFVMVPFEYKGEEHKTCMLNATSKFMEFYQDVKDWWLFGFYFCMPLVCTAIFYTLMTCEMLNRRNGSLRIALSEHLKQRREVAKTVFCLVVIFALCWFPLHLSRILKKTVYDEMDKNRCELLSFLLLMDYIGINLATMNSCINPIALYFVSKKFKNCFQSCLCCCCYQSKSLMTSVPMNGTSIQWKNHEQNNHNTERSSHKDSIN

[2] = Water solubility at pH 7.5; format: physicochemical
[3] = Water solubility at pH 7.4; format: physicochemical
[4] = target: T2, Endothelin receptor type B (Rattus norvegicus, UniProt P21451); test: In vitro inhibition of [125 I]ET-1 binding to Endothelin B receptor (ETB-receptor) in rat cerebellum membranes; format: cell membranes, Membrane
T2 sequence (P21451 whole entry): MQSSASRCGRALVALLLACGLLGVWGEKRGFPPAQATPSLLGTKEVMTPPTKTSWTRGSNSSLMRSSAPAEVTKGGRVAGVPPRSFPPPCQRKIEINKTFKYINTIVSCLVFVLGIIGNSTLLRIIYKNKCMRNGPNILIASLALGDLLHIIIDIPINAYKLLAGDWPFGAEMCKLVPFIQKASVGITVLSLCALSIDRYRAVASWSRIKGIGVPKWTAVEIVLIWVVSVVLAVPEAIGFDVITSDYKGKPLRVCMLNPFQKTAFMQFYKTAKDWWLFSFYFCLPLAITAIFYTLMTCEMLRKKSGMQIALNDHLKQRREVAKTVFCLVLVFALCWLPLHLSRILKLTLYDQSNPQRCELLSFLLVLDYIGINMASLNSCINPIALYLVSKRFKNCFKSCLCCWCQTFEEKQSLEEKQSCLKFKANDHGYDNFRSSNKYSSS

Row | Compound | IC50 [1] | further results
1 | COc1ccccc1Oc1c(NS(=O)(=O)c2ccc(C(C)(C)C)cc2)nc(C)nc1OCCOc1ncc(Br)cn1 | 2.7 nM | –
2 | Cc1ccc(-c2c(NS(=O)(=O)c3ccc(C(C)(C)C)cc3)nc(-c3ccccn3)nc2OCCOc2ncc(Br)cn2)cc1 | 0.043 nM | –
3 | Cc1ccc(-c2c(NS(=O)(=O)c3ccc(C(C)(C)C)cc3)nc(-c3cccs3)nc2OCCOc2ncc(Br)cn2)cc1 | 3.9 nM | –
4 | COc1ccccc1Oc1c(NS(=O)(=O)c2ccc(C(C)(C)C)cc2)nc(SCCC(=O)O)nc1OCCOc1ncc(Br)cn1 | 10 nM | –
5 | Cc1ccc(-c2c(NS(=O)(=O)c3ccc(C(C)(C)C)cc3)nc(-c3ccccc3)nc2OCCOc2ncc(Br)cn2)cc1 | > 10 nM | –
6 | COc1ccccc1Oc1c(NS(=O)(=O)c2ccc(C(C)(C)C)cc2)nc(OCCO)nc1OCCOc1ncc(Br)cn1 | 0.2 nM | –
7 | COc1ccccc1Oc1c(NS(=O)(=O)c2ccc(C(C)(C)C)cc2)nc(N2CCC(O)CC2)nc1OCCOc1ncc(Br)cn1 | 0.0025 nM | solubility [3]: 2570 µg/mL (≈ 3520 µM); IC50 [4]: > 1 nM
8 | COc1ccccc1Oc1c(NS(=O)(=O)c2ccc(C(C)(C)C)cc2)nc(N(C)CCO)nc1OCCOc1ncc(Br)cn1 | > 10 nM | –
9 | COc1ccccc1Oc1c(NS(=O)(=O)c2ccc(C(C)(C)C)cc2)nc(SCCO)nc1OCCOc1ncc(Br)cn1 | 0.15 nM | –
10 | CNCCNc1nc(NS(=O)(=O)c2ccc(C(C)(C)C)cc2)c(Oc2ccccc2OC)c(OCCOc2ncc(Br)cn2)n1 | > 10 nM | –
11 | COc1ccccc1Oc1c(NS(=O)(=O)c2ccc(C(C)(C)C)cc2)nc(NCCCO)nc1OCCOc1ncc(Br)cn1 | > 10 nM | –
12 | COc1ccccc1Oc1c(NS(=O)(=O)c2ccc(C(C)(C)C)cc2)nc(NCCO)nc1OCCOc1ncc(Br)cn1 | 0.0053 nM | solubility [3]: 7320 µg/mL (≈ 10600 µM); IC50 [4]: > 1 nM
13 | COc1ccccc1Oc1c(NS(=O)(=O)c2ccc(C(C)(C)C)cc2)ncnc1OCCOc1ncc(Br)cn1 | – | solubility [3]: 160 µg/mL (≈ 254 µM); IC50 [4]: > 1 nM
14 | COc1ccccc1Oc1c(NS(=O)(=O)c2ccc(C(C)(C)C)cc2)nc(C(F)(F)F)nc1OCCOc1ncc(Br)cn1 | > 10 nM | –
15 | CCCc1nc(NS(=O)(=O)c2ccc(C(C)(C)C)cc2)c(-c2ccc(C)cc2)c(OCCOc2ncc(Br)cn2)n1 | 1.6 nM | –

The next lines start with results.

Row | IC50 [1] | Compound | further results
16 | < 0.001 nM | Cc1ccc(-c2c(NS(=O)(=O)c3ccc(C(C)(C)C)cc3)ncnc2OCCOc2ncc(Br)cn2)cc1 | solubility [2]: 1.6 µg/mL (≈ 2.67 µM)
17 | 0.45 nM | COc1ccccc1Oc1c(NS(=O)(=O)c2ccc(C(C)(C)C)cc2)nc(N2CCN(C)CC2)nc1OCCOc1ncc(Br)cn1 | –
18 | 0.026 nM | CCCc1nc(NS(=O)(=O)c2ccc(C(C)(C)C)cc2)c(Oc2ccccc2OC)c(OCCOc2ncc(Br)cn2)n1 | –
19 | 1.1 nM | Cc1ccc(-c2c(NS(=O)(=O)c3ccc(C(C)(C)C)cc3)nc(C(C)C)nc2OCCOc2ncc(Br)cn2)cc1 | –
20 | > 10 nM | COc1ccccc1Oc1c(NS(=O)(=O)c2ccc(C(C)(C)C)cc2)nc(N)nc1OCCOc1ncc(Br)cn1 | –
21 | > 10 nM | COc1nc(NS(=O)(=O)c2ccc(C(C)(C)C)cc2)c(Oc2ccccc2OC)c(OCCOc2ncc(Br)cn2)n1 | –
